Results: patent US12077503B2, “Substituted cyclic amides and their use as herbicides” (FMC CORPORATION, priority 2015, dated 2024)

Legend:
Format in all cases: in vivo
[1] = test system: Kochia (Kochia scoparia); assay: Test A preemergence; details: for Kochia plant response rating (0 to 100 scale, 0 is no effect, 100 is complete control): visual injury approx. 10 d
How it was run: (§1)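 Preemergence directed soil spray on seeded pots, or postemergence application to plants 2–10 cm, one- to two-leaf. Solvent mixture non-phytotoxic, with surfactant. Scored ~10 d later, visually, 0–100 vs untreated.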

[2] = test system: barnyardgrass (Echinochloa crus-galli); assay: Test A preemergence; details: for Barnyardgrass plant response rating (0 to 100 scale, 0 is no effect, 100 is complete control): visual injury approx. 10 d
How it was run: as §1

[3] = test system: giant foxtail (Setaria faberii); assay: Test A preemergence; details: for Foxtail, Giant plant response rating (0 to 100 scale, 0 is no effect, 100 is complete control): visual injury approx. 10 d
How it was run: as §1

[4] = test system: pigweed (Amaranthus retroflexus); assay: Test A preemergence; details: for Pigweed plant response rating (0 to 100 scale, 0 is no effect, 100 is complete control): visual injury approx. 10 d
[5] = test system: ragweed (common ragweed, Ambrosia elatior); assay: Test A preemergence; details: for Ragweed plant response rating (0 to 100 scale, 0 is no effect, 100 is complete control): visual injury approx. 10 d
How it was run: as §1

[6] = test system: ryegrass, Italian (Italian ryegrass, Lolium multiflorum); assay: Test A preemergence; details: for Ryegrass, Italian plant response rating (0 to 100 scale, 0 is no effect, 100 is complete control): visual injury approx. 10 d
How it was run: as §1

[7] = test system: Galium (catchweed bedstraw, Galium aparine); assay: Test A postemergence
How it was run: as §1

[8] = test system: Kochia (Kochia scoparia); assay: Test A postemergence
How it was run: as §1

[9] = test system: barnyardgrass (Echinochloa crus-galli); assay: Test A postemergence
How it was run: as §1

[10] = test system: blackgrass (Alopecurus myosuroides); assay: Test A postemergence
How it was run: as §1

[11] = test system: corn (Zea mays); assay: Test A postemergence
How it was run: as §1

[12] = test system: giant foxtail (Setaria faberii); assay: Test A postemergence
How it was run: as §1

[13] = test system: pigweed (Amaranthus retroflexus); assay: Test A postemergence
How it was run: as §1

[14] = test system: ragweed (common ragweed, Ambrosia elatior); assay: Test A postemergence
How it was run: as §1

[15] = test system: ryegrass, Italian (Italian ryegrass, Lolium multiflorum); assay: Test A postemergence
How it was run: as §1

[16] = test system: wheat (Triticum aestivum); assay: Test A postemergence
How it was run: as §1

[17] = test system: barnyardgrass (Echinochloa crus-galli); assay: Test B flooded paddy test; details: Flood, 250 g ai/ha; 0 to 100 scale where 0 is no effect and 100 is complete control; 13 to 15 d
How it was run: (§2)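 Flooding to 3 cm over soil accompanied treatment, which consisted of adding compound to the standing water around 2-leaf plants; depth was then maintained. Visual assessment versus controls followed at 13 to 15 d (scale 0–100, 0 meaning no effect).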

[18] = test system: ducksalad (Heteranthera limosa); assay: Test B flooded paddy test; details: Flood, 250 g ai/ha; 0 to 100 scale where 0 is no effect and 100 is complete control; 13 to 15 d
How it was run: as §2

[19] = test system: rice (Oryra sativa); assay: Test B flooded paddy test; details: Flood, 250 g ai/ha; 0 to 100 scale where 0 is no effect and 100 is complete control; 13 to 15 d
How it was run: as §2

[20] = test system: sedge, umbrella (small-flower umbrella sedge, Cyperus difformis); assay: Test B flooded paddy test; details: Flood, 250 g ai/ha; 0 to 100 scale where 0 is no effect and 100 is complete control; 13 to 15 d
How it was run: as §2

[21] = 125 g ai/ha, preemergence, 0 to 100 scale (0 no effect, 100 complete control)
[22] = 125 g ai/ha, postemergence, visual injury rating on 0 to 100 scale (0 no effect, 100 complete control), approx. 10 d
[23] = 500 g ai/ha, postemergence, 0 to 100 scale, 0 no effect, 100 complete control
[24] = 125 g ai/ha, Preemergence, visual injury after approximately 10 d, 0 to 100 scale where 0 is no effect and 100 is complete control
[25] = 125 g ai/ha, postemergence, visual rating after approx. 10 d, 0 to 100 scale (0 no effect, 100 complete control)
[26] = Postemergence, 500 g ai/ha, 0 to 100 scale where 0 is no effect and 100 is complete control
[27] = 500 g ai/ha, preemergence, 0 to 100 scale, 0 = no effect, 100 = complete control
[28] = 500 g ai/ha, postemergence, visual injury, 0 to 100 scale (0 no effect, 100 complete control), approx. 10 d

Cc1cc(C2CN(C)C(=O)C2C(=O)Nc2ccccc2C(F)(F)F)ccc1F (stereo not drawn) [Compound 406]
40: Kochia plant response rating (0 to 100 scale, 0 is no effect, 100 is complete control) ([1]; Preemergence, 500 g ai/ha) | Ragweed plant response rating (0 to 100 scale, 0 is no effect, 100 is complete control) ([5]; Preemergence, 500 g ai/ha) | Kochia plant response rating [8, 22] | Plant response rating, Ryegrass, Italian [15, 23] | Wheat plant response rating [16, 22]
30: Blackgrass plant response rating [10, 22] | Plant response rating, Pigweed [13, 23] | Ryegrass, Italian plant response rating [15, 22]
70: Plant response rating, Corn [11, 23] | Plant response rating, Wheat [16, 23] | Plant response rating, Barnyardgrass [17]
90: Plant response rating, Barnyardgrass [2, 21] | Barnyardgrass plant response rating (0 to 100 scale, 0 is no effect, 100 is complete control) ([2]; Preemergence, 500 g ai/ha) | Plant response rating, Foxtail, Giant [3, 21] | Foxtail, Giant plant response rating (0 to 100 scale, 0 is no effect, 100 is complete control) ([3]; Preemergence, 500 g ai/ha) | Barnyardgrass plant response rating [9, 22] | Plant response rating, Barnyardgrass [9, 23]
50: Pigweed plant response rating (0 to 100 scale, 0 is no effect, 100 is complete control) ([4]; Preemergence, 500 g ai/ha) | Ryegrass, Italian plant response rating (0 to 100 scale, 0 is no effect, 100 is complete control) ([6]; Preemergence, 500 g ai/ha) | Galium plant response rating [7, 22] | Plant response rating, Galium [7, 23] | Plant response rating, Kochia [8, 23] | Plant response rating, Blackgrass [10, 23]
0: Plant response rating, Kochia [1, 21] | Plant response rating, Ragweed [5, 21] | Plant response rating, Rice [19] | Plant response rating, Sedge, Umbrella [20]
20: Plant response rating, Pigweed [4, 21] | Plant response rating, Ryegrass, Italian [6, 21] | Corn plant response rating [11, 22] | Pigweed plant response rating [13, 22] | Ragweed plant response rating [14, 22] | Plant response rating, Ragweed [14, 23]
80: Foxtail, Giant plant response rating [12, 22] | Plant response rating, Foxtail, Giant [12, 23] | Plant response rating, Ducksalad [18]

O=C1NCC(c2cc(C(F)(F)F)cc(C(F)(F)F)c2)C1C(=O)Nc1ccc(F)cc1F (stereo not drawn) [Compound 589]
40: Ryegrass, Italian plant response rating (0 to 100 scale, 0 is no effect, 100 is complete control) ([6]; Preemergence, 500 g ai/ha) | Plant response rating, Blackgrass [10, 26] | Plant response rating, Ryegrass, Italian [15, 26]
50: Plant response rating, Wheat [16, 26]
70: Plant response rating, Ducksalad [18]
80: Plant response rating, Barnyardgrass [2, 24] | Plant response rating, Foxtail, Giant [3, 24] | Plant response rating, Barnyardgrass [9, 26] | Plant response rating, Foxtail, Giant [12, 25] | Plant response rating, Foxtail, Giant [12, 26]
20: Plant response rating, Blackgrass [10, 25] | Plant response rating, Ryegrass, Italian [15, 25] | Plant response rating, Rice [19]
90: Barnyardgrass plant response rating (0 to 100 scale, 0 is no effect, 100 is complete control) ([2]; Preemergence, 500 g ai/ha) | Foxtail, Giant plant response rating (0 to 100 scale, 0 is no effect, 100 is complete control) ([3]; Preemergence, 500 g ai/ha)
10: Plant response rating, Corn [11, 25]
60: Plant response rating, Barnyardgrass [9, 25] | Plant response rating, Corn [11, 26] | Plant response rating, Barnyardgrass [17]
0: Plant response rating, Kochia [1, 24] | Kochia plant response rating (0 to 100 scale, 0 is no effect, 100 is complete control) ([1]; Preemergence, 500 g ai/ha) | Plant response rating, Pigweed [4, 24] | Pigweed plant response rating (0 to 100 scale, 0 is no effect, 100 is complete control) ([4]; Preemergence, 500 g ai/ha) | Plant response rating, Ragweed [5, 24] | Ragweed plant response rating (0 to 100 scale, 0 is no effect, 100 is complete control) ([5]; Preemergence, 500 g ai/ha) | Plant response rating, Ryegrass, Italian [6, 24] | Plant response rating, Galium [7, 25] | Plant response rating, Galium [7, 26] | Plant response rating, Kochia [8, 25] | Plant response rating, Kochia [8, 26] | Plant response rating, Pigweed [13, 25] | Plant response rating, Pigweed [13, 26] | Plant response rating, Ragweed [14, 25] | Plant response rating, Ragweed [14, 26] | Plant response rating, Wheat [16, 25] | Plant response rating, Sedge, Umbrella [20]

O=C1NCC(c2cc(F)c(F)cc2F)C1C(=O)Nc1cccc(F)c1F (racemic) [Compound 550]
55: Plant response rating, Barnyardgrass [17]
60: Plant response rating, Galium [7, 26]
50: Plant response rating, Kochia [8, 26] | Plant response rating, Blackgrass [10, 26] | Plant response rating, Rice [19]
90: Barnyardgrass plant response rating (0 to 100 scale, 0 is no effect, 100 is complete control) ([2]; Preemergence, 500 g ai/ha) | Plant response rating, Foxtail, Giant [3, 24] | Foxtail, Giant plant response rating (0 to 100 scale, 0 is no effect, 100 is complete control) ([3]; Preemergence, 500 g ai/ha) | Plant response rating, Barnyardgrass [9, 26] | Plant response rating, Foxtail, Giant [12, 26]
0: Plant response rating, Kochia [1, 24] | Plant response rating, Pigweed [4, 24] | Pigweed plant response rating (0 to 100 scale, 0 is no effect, 100 is complete control) ([4]; Preemergence, 500 g ai/ha) | Plant response rating, Ragweed [5, 24] | Ragweed plant response rating (0 to 100 scale, 0 is no effect, 100 is complete control) ([5]; Preemergence, 500 g ai/ha) | Plant response rating, Ryegrass, Italian [6, 24] | Plant response rating, Galium [7, 25] | Plant response rating, Kochia [8, 25] | Plant response rating, Blackgrass [10, 25] | Plant response rating, Corn [11, 25] | Plant response rating, Pigweed [13, 25] | Plant response rating, Pigweed [13, 26] | Plant response rating, Ragweed [14, 25] | Plant response rating, Ragweed [14, 26] | Plant response rating, Ryegrass, Italian [15, 25] | Plant response rating, Wheat [16, 25] | Plant response rating, Sedge, Umbrella [20]
30: Plant response rating, Wheat [16, 26]
40: Kochia plant response rating (0 to 100 scale, 0 is no effect, 100 is complete control) ([1]; Preemergence, 500 g ai/ha) | Plant response rating, Barnyardgrass [2, 24]
80: Plant response rating, Barnyardgrass [9, 25] | Plant response rating, Foxtail, Giant [12, 25]
20: Ryegrass, Italian plant response rating (0 to 100 scale, 0 is no effect, 100 is complete control) ([6]; Preemergence, 500 g ai/ha) | Plant response rating, Corn [11, 26] | Plant response rating, Ryegrass, Italian [15, 26]
95: Plant response rating, Ducksalad [18]

C=CCOc1cccc(C2CNC(=O)C2(CC=C)C(=O)Nc2cccc(F)c2F)c1 (stereo not drawn) [Compound 631]
0: Plant response rating, Kochia [1, 24] | Plant response rating, Kochia [1, 27] | Plant response rating, Barnyardgrass [2, 24] | Plant response rating, Barnyardgrass [2, 27] | Plant response rating, Foxtail, Giant [3, 24] | Plant response rating, Foxtail, Giant [3, 27] | Plant response rating, Pigweed [4, 24] | Plant response rating, Pigweed [4, 27] | Plant response rating, Ragweed [5, 24] | Plant response rating, Ragweed [5, 27] | Plant response rating, Ryegrass, Italian [6, 24] | Plant response rating, Ryegrass, Italian [6, 27] | Plant response rating, Galium [7, 25] | Plant response rating, Galium [7, 28] | Plant response rating, Kochia [8, 25] | Plant response rating, Kochia [8, 28] | Plant response rating, Barnyardgrass [9, 25] | Plant response rating, Barnyardgrass [9, 26] | Plant response rating, Blackgrass [10, 25] | Plant response rating, Blackgrass [10, 26] | Plant response rating, Corn [11, 25] | Plant response rating, Corn [11, 26] | Plant response rating, Foxtail, Giant [12, 25] | Plant response rating, Foxtail, Giant [12, 28] | Plant response rating, Pigweed [13, 25] | Plant response rating, Pigweed [13, 28] | Plant response rating, Ragweed [14, 25] | Plant response rating, Ragweed [14, 28] | Plant response rating, Ryegrass, Italian [15, 25] | Plant response rating, Ryegrass, Italian [15, 28] | Plant response rating, Wheat [16, 25] | Plant response rating, Wheat [16, 28] | Plant response rating, Barnyardgrass [17] | Plant response rating, Ducksalad [18] | Plant response rating, Rice [19] | Plant response rating, Sedge, Umbrella [20]
